From publication PMC11213902, “Enhancing hepatoprotective action: oxyberberine amorphous solid dispersion system targeting TLR4” (Scientific Reports, 2024)

How the values were obtained:
[1] = test system: LPS/D-GalN-induced acute liver injury (ALI) mice; test: LPS/D-GalN-induced ALI, liver function analysis (serum ALT, AST); type: in vivo, C57BL/6 mice; details: gavage once daily 7 days; OBB-ASDs 25 and 50 mg/kg, OBB-SUS 50 mg/kg, Silymarin 100 mg/kg; P < 0.05
Method: (§1) All mice were randomly divided into six groups (n = 8): normal control group (NC); LPS/D-GalN group; OBB-ASDs25 group (25 mg/kg OBB-HPMCAS); OBB-ASDs50 group (50 mg/kg OBB-HPMCAS); OBB-SUS group (50 mg/kg OBB suspension); Silymarin group (100 mg/kg Silymarin). The drug dosage design for the ALI trial was primarily based on our previous research findings[25] and preclinical experiments. Except for NC and LPS/D-GalN groups, all other groups of mice were respectively pretreated by gavage with the corresponding dose of OBB-ASDs, OBB-SUS, and Silymarin once daily for 7 consecutive days. Mice in NC and LPS/D-GalN group were given the same volume of saline by intragastric administration. At 2 h postdose, all mice (except the NC group) were exposed to 30 μg/kg LPS and 600 mg/kg D-GalN. Mice in NC group were received the same volume of PBS intraperitoneally. After challenging for 6 h, blood samples were collected from the eyeball vein under 2% sodium pentobarbital anesthesia. Subsequently, the liver was immediately dissected, weighed, washed with saline, and stored at − 80 °C until further analyzed.
After centrifugated at 3000 g for 10 min, serum was acquired and the activities of ALT and AST were measured using commercial kits (Nanjing Jiancheng, China) following the manufacturer’s instructions.

[2] = test system: non-alcoholic fatty liver disease (NAFLD); parameters: method as in PMID 33831691; details: cited from earlier work
[3] = test system: kidneys; test: Chronic nephrotoxicity assessment (kidney HE staining); type: in vivo, C57BL/6 mice; details: mice, oral, 50 mg/kg, continuous administration for 4, 8, and 16 weeks
Method: Male C57BL/6 mice were orally administered OBB and OBB-HPMCAS at a dose of 50 mg/kg for 16 weeks. Kidney tissues were collected at 4, 8, and 16 weeks for HE staining to observe the long-term effects of OBB administration on the kidneys.

[4] = test system: hepatic inflammatory mediators and oxidative stress in ALI mice; test: LPS/D-GalN-induced ALI, liver biochemical assessment (oxidative and inflammatory stress); type: in vivo, C57BL/6 mice
Method: as §1
Fresh liver tissues were homogenized in Tris–HCl buffer (pH 7.4) and centrifuged at 4500 rpm for 15 min (4 °C). Subsequently, the supernatants were collected and assayed for MDA, SOD, GSH, MCP-1, TNF-α, IL-1β, and IL-6 using its specific commercially available assay kit following the manufacturer’s instructions.

[5] = Preliminary experiment: absorption and oral bioavailability; type: in vivo; details: pure OBB
[6] = parameters: method as in PMID 30599908; details: cited from earlier work
[7] = In vivo oral bioavailability study; parameters: species or system SD rats; details: male, rat plasma OBB, 100 mg/kg, n = 6, mean ± SD
Method: Male SD rats weighing 220 ± 15 g were obtained from the Guangdong Medical Laboratory Animal Center (GDMLAC, Guangzhou, China). After fasting overnight, six rats were taken in each group, based on respective treatment at a dose of 100 mg/kg each: OBB-HPMCAS and OBB-SUS (OBB suspension). After isoflurane anesthesia, blood samples were collected from the posterior orbital venous plexus at 5, 10, 20, 30, 60, 90, 120, 180, 240, 360, 480, 720, and 1440 min, respectively. After centrifugation (12,000 rpm, 5 min), plasma was collected and stored at − 80 °C for further analysis. For deproteinization of plasma, ethyl acetate (200 μL) was added to the mixture and vortexed for 3 min. After centrifugation for […], the supernatant was collected and vacuum dried at 40 °C, − 0.8 Mpa. The residue was redissolved with 100 μL methanol/water (50:50, v/v). After centrifugation (12,000 rpm, 10 min), the supernatant was analyzed by LC–MS/MS system. Pharmacokinetic parameters were calculated based on the plasma pharmacokinetics of OBB. The peak concentration (Cmax), time of the peak concentration (Tmax), half-life (T1/2), and area under the profile from time 0 to 24 h (AUC0-24), were calculated using a DAS software (Version 2.0; Drug And Statistics, Shanghai, China, RRID: SCR_022672).

[8] = test system: LPS/D-GalN-induced acute liver injury (ALI) mice; test: LPS/D-GalN-induced ALI, liver pathological changes (H&E); type: in vivo, C57BL/6 mice; details: gavage once daily 7 days; OBB-ASDs 25 and 50 mg/kg, OBB-SUS 50 mg/kg, Silymarin 100 mg/kg
Method: as §1
Liver tissue pathology was evaluated by regular hematoxylin–eosin (H&E) staining. […] According to the scoring system, liver injury was evaluated by pathologists blinded to the experimental protocol. Scores were determined as Dkhil et al. previously described (Table 3)[26].

[9] = test system: ALI challenged by LPS/D-GalN; parameters: method as in PMID 35691465; details: previous research ref 8; cited from earlier work
[10] = In vitro dissolution study (paddle method); type: physicochemical; details: 0.3% SDS medium, 37 °C
Method: The dissolution Apparatus II (stirring paddle method) was utilized for the in vitro dissolution studies at a rotation speed of 100 ± 1 rpm in 250 mL 0.3% (w/v) sodium dodecyl sulfate (SDS) aqueous solution medium with a ZRS-8G dissolution tester (Tianjin Haiyida Technology Co., Ltd, Tianjin, China). All experiments were performed at 37 ± 0.5 °C. The OBB-ASDs samples were weighed to be equivalent to 2 mg of OBB. At predetermined time points (0, 5, 10, 20, 30, 60, and 90 min), 0.5 mL of sample solution was taken out and replaced with the same volume of fresh SDS solution (37 ± 0.5 °C). After being filtered through a 0.22 μm syringe filter, the filtered samples were collected and analyzed by HPLC.

[11] = test system: mRNA expression of TLR4, MyD88, IL-1β, and IL-6; test: LPS/D-GalN-induced ALI, quantitative PCR of liver tissues; type: in vivo, C57BL/6 mice; details: P < 0.01
Method: as §1, with “-” for “−”, “analyzed. […] Quantitative PCR was performed on an Applied Biosystems 7500 Real-Time system (ABI 7500, RRID: SCR_018051). Primer sequences against mouse cDNAs used in qPCR were listed as follows: TLR4, [NT] (reverse); MyD88, […] (reverse); IL-6, [NT] (reverse); IL-1β, [NT] (reverse); and GAPDH, […] (reverse).” for “analyzed.”

[12] = compared with the LPS/D-GalN group
[13] = pretreatment 7 days, OBB-ASDs 25 and 50 mg/kg, OBB-SUS 50 mg/kg, Silymarin 100 mg/kg, vs LPS/D-GalN group
[14] = higher in LPS/D-GalN challenged mice
[15] = qRT-PCR, elevation after LPS/D-GalN exposure

absorption and oral bioavailability [5]: poor
Cmax [7]: 169 ± 18.6 ng/mL
Tmax [7]: 4.67 ± 0.52 h
half-life [7]: 2.99 ± 0.42 h
AUC(0-t) ([7]; read-out: AUC0-24): 1260 ± 130 ng·h/mL
release / dissolution rate, pure OBB compared with formulations [10]: significantly slower
Compound: COc1ccc2cc3n(c(=O)c2c1OC)CCc1cc2c(cc1-3)OCO2 [OBB, 8-Oxyberberine]
serum ALT level vs LPS/D-GalN group [1]: extremely reduced
serum AST level vs LPS/D-GalN group [1]: extremely reduced
effect on non-alcoholic fatty liver disease (NAFLD) [2]: pronounced therapeutic effect
kidney damage (HE staining) [3]: no significant kidney damage
hepatic CAT content [4, 12]: increasing
hepatic GSH content [4, 12]: increasing
hepatic MDA level [4, 12]: dramatically suppressed
hepatic SOD content [4, 12]: increasing
IL-1β level in liver [4, 13]: largely decreased
IL-6 level in liver [4, 13]: largely decreased
MCP-1 level in liver [4, 13]: largely decreased
TNF-α level in liver [4, 13]: largely decreased
solubility in water [6]: poorly soluble in water
liver tissue injury (H&E staining) vs model group [8]: conspicuously mitigated
effect on ALI challenged by LPS/D-GalN [9]: effectively attenuated
MyD88 mRNA expression (real-time PCR) [11, 14]: restored
TLR4 mRNA expression (real-time PCR) [11, 14]: restored
IL-1β mRNA expression level in liver [11, 15]: markedly restore
IL-6 mRNA expression level in liver [11, 15]: markedly restore
